In BindingDB's records for doi:10.1016/j.bmcl.2018.01.029 (Presidio Pharmaceuticals, 2018):

Assays:
[1] = Inhibition of HCV genotype 3a NS5B polymerase infected in human HuH7 replicon cells by luciferase reporter gene assay
[2] = Inhibition of HCV genotype 2a NS5B polymerase infected in human HuH7 replicon cells by luciferase reporter gene assay
[3] = Inhibition of HCV genotype 1a NS5A polymerase infected in human HuH7 replicon cells by luciferase reporter gene assay
[4] = Inhibition of HCV genotype 4a NS5B polymerase infected in human HuH7 replicon cells by luciferase reporter gene assay
[5] = Inhibition of NS5B polymerase in HCV genotype 1b infected human HuH7 replicon cells assessed as reduction in viral RNA level after 3 days by RT-PCR assay
[6] = Inhibition of HCV genotype 1b NS5B polymerase infected in human HuH7 replicon cells by luciferase reporter gene assay

Structure (SMILES)	EC50 [1] [nM]	EC50 [2] [nM]	EC50 [3] [nM]	EC50 [4] [nM]	EC50 [5] [nM]	EC50 [6] [nM]
CNC(=O)c1c(-c2ccc(F)cc2)oc2cc(N(CCO)S(C)(=O)=O)c(C3CC3)cc12 [HCV 796]	19	72	24	21	9	12
CNC(=O)c1c(-c2ccc(F)cc2)oc2cc3c(cc12)[C@H](C)O[C@H](CS(C)(=O)=O)CN3S(C)(=O)=O	10	18	4	7	–	3
